Reference: ChEMBL document CHEMBL1145159 (J Med Chem, 2005)
Where “and” joins values, the source holds several entries; their conditions need not be identical. Equal entries are not always repeated. Square brackets hold non-standard residues; d marks the D form. Peptide text beside a SMILES is read from it. Hyp = O=C(O)[C@@H]1C[C@@H](O)CN1

Assays:
[1] = Inhibitory concentration against Nicotinic acetylcholine receptor alpha2-beta4 expressed in xenopus oocytes; format: cell-based; details: oocyte
[2] = target: T1, Neuronal acetylcholine receptor; alpha3/beta2 (Homo sapiens, UniProt P17787+P32297); assay: Inhibitory concentration against Nicotinic acetylcholine receptor alpha3-beta2 expressed in xenopus oocytes; format: cell-based, Oocyte
[3] = Inhibitory concentration against Nicotinic acetylcholine receptor alpha3-beta4 expressed in xenopus oocytes; format: cell-based; details: oocyte
[4] = target: T2, Neuronal acetylcholine receptor; alpha2/beta4 (Homo sapiens, UniProt P30926+Q15822); assay: Inhibitory concentration against Nicotinic acetylcholine receptor alpha2-beta4; format: protein-complex assay
[5] = target: T1, Neuronal acetylcholine receptor; alpha3/beta2; assay: Inhibitory concentration against Nicotinic acetylcholine receptor alpha3-beta2; format: protein-complex assay
[6] = target: T3, Neuronal acetylcholine receptor; alpha3/beta4 (Homo sapiens, UniProt P30926+P32297); assay: Inhibitory concentration against Nicotinic acetylcholine receptor alpha3-beta4; format: protein-complex assay
[7] = target: T4, Neuronal acetylcholine receptor subunit alpha-7 (Homo sapiens, UniProt P36544); assay: Inhibitory concentration against Nicotinic acetylcholine receptor alpha-7 expressed in xenopus oocytes; format: cell-based; details: xenopus oocyte
[8] = target: T5, Neuronal acetylcholine receptor; alpha4/beta2 (Homo sapiens, UniProt P17787+P43681); assay: Ki or IC50 concentration against Nicotinic acetylcholine receptor alpha4-beta2 expressed in xenopus oocytes; format: cell-based; details: Oocyte
[9] = target: T6, Neuronal acetylcholine receptor; alpha4/beta4 (Homo sapiens, UniProt P30926+P43681); assay: Ki or IC50 concentration against Nicotinic acetylcholine receptor alpha4-beta4 expressed in xenopus oocytes; format: cell-based; details: Oocyte
[10] = target: T4, Neuronal acetylcholine receptor subunit alpha-7; assay: Inhibitory concentration against Nicotinic acetylcholine receptor alpha 7
[11] = target: T5, Neuronal acetylcholine receptor; alpha4/beta2; assay: Inhibitory concentration against Nicotinic acetylcholine receptor alpha4-beta2; format: protein-complex assay
[12] = target: Neuronal acetylcholine receptor subunit alpha-7 (Rattus norvegicus) (UniProt Q05941); assay: Maximal response against rat neural Nicotinic acetylcholine receptor alpha 7
[13] = target: Neuronal acetylcholine receptor; alpha3/beta2 (Rattus norvegicus) (UniProt P04757+P12390); assay: Maximal response against rat neural Nicotinic acetylcholine receptor alpha3-beta2; format: protein-complex assay
[14] = target: T7, Neuronal acetylcholine receptor; alpha3/beta4 (Rattus norvegicus) (UniProt P04757+P12392); assay: Maximal response against rat neural Nicotinic acetylcholine receptor alpha3-beta4; format: protein-complex assay
[15] = target: T8, Neuronal acetylcholine receptor; alpha4/beta2 (Rattus norvegicus) (UniProt P09483+P12390); assay: Maximal response against rat neural Nicotinic acetylcholine receptor alpha4-beta2; format: protein-complex assay
[16] = target: Neuronal acetylcholine receptor; alpha3/alpha6/beta2/beta3 (Homo sapiens, UniProt P17787+P32297+Q05901+Q15825); assay: Inhibitory concentration against Nicotinic acetylcholine receptor alpha-6-alpha-3-beta-2-beta-3; Range is 0.7-1 nM; format: protein-complex assay
[17] = target: T3, Neuronal acetylcholine receptor; alpha3/beta4; assay: Inhibitory concentration against Nicotinic acetylcholine receptor alpha3-beta4; Range is 0.7-1 nM; format: protein-complex assay
[18] = target: T1, Neuronal acetylcholine receptor; alpha3/beta2; assay: Inhibitory concentration against Nicotinic acetylcholine receptor alpha3-beta2; Range is 3-5 nM; format: protein-complex assay
[19] = target: T3, Neuronal acetylcholine receptor; alpha3/beta4; assay: Inhibitory concentration against Nicotinic acetylcholine receptor alpha3-beta4; Range is 3-5 nM; format: protein-complex assay
[20] = target: T5, Neuronal acetylcholine receptor; alpha4/beta2; assay: Inhibitory concentration against Nicotinic acetylcholine receptor alpha4-beta2; Range is 3-5 nM; format: protein-complex assay
[21] = target: T6, Neuronal acetylcholine receptor; alpha4/beta4; assay: Inhibitory concentration against Nicotinic acetylcholine receptor alpha4-beta4; Range is 3-5 nM; format: protein-complex assay
[22] = target: T4, Neuronal acetylcholine receptor subunit alpha-7; assay: Inhibitory concentration against Nicotinic acetylcholine receptor alpha-7 Range is 3-5 nM
[23] = target: T2, Neuronal acetylcholine receptor; alpha2/beta4; assay: Maximal response against Nicotinic acetylcholine receptor alpha2-beta4; format: protein-complex assay
[24] = target: T1, Neuronal acetylcholine receptor; alpha3/beta2; assay: Maximal response against Nicotinic acetylcholine receptor alpha3-beta2; format: protein-complex assay
[25] = target: T3, Neuronal acetylcholine receptor; alpha3/beta4; assay: Maximal response against Nicotinic acetylcholine receptor alpha3-beta4; format: protein-complex assay
[26] = target: T5, Neuronal acetylcholine receptor; alpha4/beta2; assay: Maximal response against Nicotinic acetylcholine receptor alpha4-beta2; format: protein-complex assay
[27] = target: T6, Neuronal acetylcholine receptor; alpha4/beta4; assay: Maximal response against Nicotinic acetylcholine receptor alpha4-beta4; format: protein-complex assay
[28] = target: Neuronal acetylcholine receptor subunit alpha-7 (Rattus norvegicus) (UniProt Q05941); assay: Maximal response against Nicotinic acetylcholine receptor alpha 7
[29] = target: T3, Neuronal acetylcholine receptor; alpha3/beta4; assay: Maximal response against Nicotinic acetylcholine receptor alpha3-beta4 in [Ca2+] permeability and [Ca2+] modulation; format: protein-complex assay
[30] = target: T4, Neuronal acetylcholine receptor subunit alpha-7; assay: Effective concentration against Nicotinic acetylcholine receptor alpha 7 expressed in xenopus oocytes; format: cell-based, Xenopus laevis, Oocyte
[31] = target: T1, Neuronal acetylcholine receptor; alpha3/beta2; assay: Maximal response against Nicotinic acetylcholine receptor alpha3-beta2 in [Ca2+] permeability and [Ca2+] modulation; format: functional
[32] = Effective concentration against Nicotinic acetylcholine receptor alpha4-beta2 expressed in xenopus oocytes; format: cell-based; details: oocyte
[33] = Effective concentration against Nicotinic acetylcholine receptor alpha2-beta4 expressed in xenopus oocytes; format: cell-based; details: oocyte
[34] = target: T1, Neuronal acetylcholine receptor; alpha3/beta2; assay: Effective concentration against Nicotinic acetylcholine receptor alpha3-beta2 expressed in xenopus oocytes; format: cell-based, Oocyte
[35] = Effective concentration against Nicotinic acetylcholine receptor alpha3-beta4 expressed in xenopus oocytes; format: cell-based; details: oocyte
[36] = Effective concentration against Nicotinic acetylcholine receptor alpha4-beta4 expressed in xenopus oocytes; format: cell-based; details: oocyte
[37] = target: Neuronal acetylcholine receptor; alpha2/beta4 (Rattus norvegicus) (UniProt P12389+P12392); assay: Maximal response against Nicotinic acetylcholine receptor alpha2-beta4 in rat mid brain slices
[38] = target: T7, Neuronal acetylcholine receptor; alpha3/beta4 (Rattus norvegicus); assay: Maximal response against Nicotinic acetylcholine receptor alpha3-beta4 in rat mid brain slices
[39] = target: T8, Neuronal acetylcholine receptor; alpha4/beta2 (Rattus norvegicus); assay: Maximal response against Nicotinic acetylcholine receptor alpha4-beta2 in rat mid brain slices
[40] = target: Neuronal acetylcholine receptor; alpha4/beta4 (Rattus norvegicus) (UniProt P09483+P12392); assay: Maximal response against Nicotinic acetylcholine receptor alpha4-beta4 in rat mid brain slices
[41] = target: Neuronal acetylcholine receptor subunit alpha-7 (Rattus norvegicus, UniProt Q05941); assay: Effective concentration against Nicotinic acetylcholine receptor alpha 7 in rat mid brain slices
[42] = target: Neuronal acetylcholine receptor; alpha3/beta2 (Rattus norvegicus, UniProt P04757+P12390); assay: Effective concentration against Nicotinic acetylcholine receptor alpha3-beta2 in rat mid brain slices
[43] = target: T4, Neuronal acetylcholine receptor subunit alpha-7; assay: Effective concentration against Nicotinic acetylcholine receptor alpha 7
[44] = target: T3, Neuronal acetylcholine receptor; alpha3/beta4; assay: Effective concentration against Nicotinic acetylcholine receptor alpha3-beta4; format: protein-complex assay
[45] = target: T6, Neuronal acetylcholine receptor; alpha4/beta4; assay: Effective concentration against Nicotinic acetylcholine receptor alpha4-beta4; format: protein-complex assay

T1 sequence (P17787 whole entry): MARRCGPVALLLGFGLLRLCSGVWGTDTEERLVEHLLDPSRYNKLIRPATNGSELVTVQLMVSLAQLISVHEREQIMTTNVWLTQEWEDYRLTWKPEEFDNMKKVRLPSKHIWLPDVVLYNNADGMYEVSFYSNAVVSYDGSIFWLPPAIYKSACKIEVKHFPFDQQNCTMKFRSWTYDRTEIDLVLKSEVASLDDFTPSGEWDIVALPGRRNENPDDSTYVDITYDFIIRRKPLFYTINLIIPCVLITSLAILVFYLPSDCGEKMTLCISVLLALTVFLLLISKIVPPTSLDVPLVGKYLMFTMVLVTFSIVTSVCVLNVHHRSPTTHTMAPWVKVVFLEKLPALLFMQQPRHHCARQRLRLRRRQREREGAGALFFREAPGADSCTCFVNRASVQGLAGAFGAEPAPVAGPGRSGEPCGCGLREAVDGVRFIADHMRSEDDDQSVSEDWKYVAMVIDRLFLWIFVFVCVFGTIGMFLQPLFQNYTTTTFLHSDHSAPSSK
T1 sequence (P32297 whole entry): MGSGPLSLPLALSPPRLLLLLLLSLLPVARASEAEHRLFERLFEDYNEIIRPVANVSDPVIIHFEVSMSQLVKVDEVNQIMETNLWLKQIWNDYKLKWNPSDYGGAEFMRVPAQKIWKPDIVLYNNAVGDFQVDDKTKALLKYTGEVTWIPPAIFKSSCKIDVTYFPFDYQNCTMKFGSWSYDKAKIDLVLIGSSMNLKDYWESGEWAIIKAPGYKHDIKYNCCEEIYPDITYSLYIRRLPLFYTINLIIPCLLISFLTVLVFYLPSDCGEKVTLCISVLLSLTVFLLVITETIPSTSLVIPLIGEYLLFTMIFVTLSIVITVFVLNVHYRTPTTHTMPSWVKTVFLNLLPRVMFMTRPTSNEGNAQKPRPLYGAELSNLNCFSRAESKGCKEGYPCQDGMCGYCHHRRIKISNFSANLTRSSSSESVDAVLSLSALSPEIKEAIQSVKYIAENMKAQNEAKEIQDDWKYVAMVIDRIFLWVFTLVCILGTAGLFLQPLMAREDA
T4 sequence (P36544 whole entry): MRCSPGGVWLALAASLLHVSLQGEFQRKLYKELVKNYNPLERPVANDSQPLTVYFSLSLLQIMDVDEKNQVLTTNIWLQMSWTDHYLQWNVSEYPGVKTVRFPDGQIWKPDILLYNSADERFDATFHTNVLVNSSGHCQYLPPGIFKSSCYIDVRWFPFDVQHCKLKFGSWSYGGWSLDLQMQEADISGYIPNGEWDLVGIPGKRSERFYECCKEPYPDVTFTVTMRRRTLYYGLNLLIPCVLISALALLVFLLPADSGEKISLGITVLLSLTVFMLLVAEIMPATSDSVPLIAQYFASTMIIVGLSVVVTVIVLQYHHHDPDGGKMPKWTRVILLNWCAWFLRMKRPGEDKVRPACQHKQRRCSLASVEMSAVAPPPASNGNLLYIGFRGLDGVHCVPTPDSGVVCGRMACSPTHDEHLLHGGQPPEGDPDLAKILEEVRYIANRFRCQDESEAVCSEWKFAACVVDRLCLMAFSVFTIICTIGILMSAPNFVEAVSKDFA
T3 sequence (P30926 whole entry): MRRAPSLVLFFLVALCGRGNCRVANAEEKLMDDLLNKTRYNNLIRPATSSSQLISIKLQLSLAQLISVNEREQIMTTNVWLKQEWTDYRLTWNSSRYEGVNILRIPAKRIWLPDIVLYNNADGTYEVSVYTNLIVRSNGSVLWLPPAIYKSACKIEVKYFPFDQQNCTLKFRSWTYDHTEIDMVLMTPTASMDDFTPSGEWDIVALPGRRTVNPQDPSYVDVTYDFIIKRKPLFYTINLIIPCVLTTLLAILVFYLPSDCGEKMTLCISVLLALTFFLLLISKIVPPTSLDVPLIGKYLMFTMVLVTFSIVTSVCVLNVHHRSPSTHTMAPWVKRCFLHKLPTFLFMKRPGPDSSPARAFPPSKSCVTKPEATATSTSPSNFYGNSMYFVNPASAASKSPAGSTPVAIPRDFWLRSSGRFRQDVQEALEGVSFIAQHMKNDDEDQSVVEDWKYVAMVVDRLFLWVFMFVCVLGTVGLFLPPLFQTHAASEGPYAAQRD
T3 sequence (P32297 whole entry): as the sequence (P32297 whole entry) above
Sequence of Neuronal acetylcholine receptor subunit alpha-7 (Rattus norvegicus) (Q05941 whole entry): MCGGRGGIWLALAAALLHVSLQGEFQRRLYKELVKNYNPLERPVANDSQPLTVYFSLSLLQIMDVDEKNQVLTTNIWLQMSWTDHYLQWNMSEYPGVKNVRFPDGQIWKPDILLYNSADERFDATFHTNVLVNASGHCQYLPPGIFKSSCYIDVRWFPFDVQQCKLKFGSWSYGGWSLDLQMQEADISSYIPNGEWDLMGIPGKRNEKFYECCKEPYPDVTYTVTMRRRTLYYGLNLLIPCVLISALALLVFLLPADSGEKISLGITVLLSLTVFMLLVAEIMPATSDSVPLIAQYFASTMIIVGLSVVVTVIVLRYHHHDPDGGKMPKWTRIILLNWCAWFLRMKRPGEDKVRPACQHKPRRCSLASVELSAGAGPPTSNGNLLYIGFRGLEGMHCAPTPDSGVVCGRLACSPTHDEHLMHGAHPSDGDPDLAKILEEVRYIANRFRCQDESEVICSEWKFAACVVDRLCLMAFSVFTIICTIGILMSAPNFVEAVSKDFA
T2 sequence (P30926 whole entry): as the sequence (P30926 whole entry) above
T2 sequence (Q15822 whole entry): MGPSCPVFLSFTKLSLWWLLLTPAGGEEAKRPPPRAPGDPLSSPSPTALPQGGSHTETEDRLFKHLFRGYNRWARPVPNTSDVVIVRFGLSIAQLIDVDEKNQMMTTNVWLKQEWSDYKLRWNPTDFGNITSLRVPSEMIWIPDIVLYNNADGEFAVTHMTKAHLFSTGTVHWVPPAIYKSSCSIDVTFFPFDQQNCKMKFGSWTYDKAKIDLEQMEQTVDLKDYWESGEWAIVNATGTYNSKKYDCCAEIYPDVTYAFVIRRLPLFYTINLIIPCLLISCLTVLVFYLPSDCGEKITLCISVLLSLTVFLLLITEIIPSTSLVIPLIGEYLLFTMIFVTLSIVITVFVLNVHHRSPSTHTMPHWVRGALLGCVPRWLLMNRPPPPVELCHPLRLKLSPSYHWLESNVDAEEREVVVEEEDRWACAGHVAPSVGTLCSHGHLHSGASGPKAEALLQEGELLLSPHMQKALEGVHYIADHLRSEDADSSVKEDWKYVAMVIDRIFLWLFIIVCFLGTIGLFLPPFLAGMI
T6 sequence (P30926 whole entry): as the sequence (P30926 whole entry) above
T6 sequence (P43681 whole entry): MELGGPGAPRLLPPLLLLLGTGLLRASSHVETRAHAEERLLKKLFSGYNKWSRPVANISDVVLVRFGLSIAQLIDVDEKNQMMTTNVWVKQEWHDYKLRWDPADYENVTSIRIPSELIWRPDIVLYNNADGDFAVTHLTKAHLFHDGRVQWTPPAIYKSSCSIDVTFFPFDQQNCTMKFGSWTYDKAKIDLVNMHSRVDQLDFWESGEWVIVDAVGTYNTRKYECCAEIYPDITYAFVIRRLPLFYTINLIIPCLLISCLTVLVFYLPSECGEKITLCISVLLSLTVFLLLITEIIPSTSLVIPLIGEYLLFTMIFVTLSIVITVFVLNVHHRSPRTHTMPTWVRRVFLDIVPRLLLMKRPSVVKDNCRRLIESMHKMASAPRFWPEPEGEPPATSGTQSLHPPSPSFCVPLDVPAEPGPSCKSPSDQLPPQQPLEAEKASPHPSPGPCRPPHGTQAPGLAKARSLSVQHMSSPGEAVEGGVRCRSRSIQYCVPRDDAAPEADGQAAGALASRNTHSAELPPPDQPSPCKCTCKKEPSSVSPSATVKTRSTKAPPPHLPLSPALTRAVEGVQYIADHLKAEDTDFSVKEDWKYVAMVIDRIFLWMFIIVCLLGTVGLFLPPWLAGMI
Sequence of Neuronal acetylcholine receptor subunit alpha-7 (Rattus norvegicus, UniProt Q05941) (Q05941 whole entry): as the sequence (Q05941 whole entry) above
Sequence of Neuronal acetylcholine receptor; alpha3/beta2 (Rattus norvegicus, UniProt P04757+P12390) (P04757 whole entry): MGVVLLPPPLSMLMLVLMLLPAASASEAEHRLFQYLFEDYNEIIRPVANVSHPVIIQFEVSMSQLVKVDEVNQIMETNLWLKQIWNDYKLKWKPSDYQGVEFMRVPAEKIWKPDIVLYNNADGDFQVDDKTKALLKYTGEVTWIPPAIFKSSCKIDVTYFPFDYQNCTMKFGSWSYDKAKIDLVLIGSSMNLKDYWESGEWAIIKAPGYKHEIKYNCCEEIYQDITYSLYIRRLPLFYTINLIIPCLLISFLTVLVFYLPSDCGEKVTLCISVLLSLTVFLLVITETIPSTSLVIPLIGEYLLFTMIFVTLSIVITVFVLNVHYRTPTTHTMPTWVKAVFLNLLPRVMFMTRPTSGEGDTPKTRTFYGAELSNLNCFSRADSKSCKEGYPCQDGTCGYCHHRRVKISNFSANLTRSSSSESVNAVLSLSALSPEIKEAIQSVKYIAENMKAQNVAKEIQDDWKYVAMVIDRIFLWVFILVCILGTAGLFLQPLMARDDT
Sequence of Neuronal acetylcholine receptor; alpha3/beta2 (Rattus norvegicus, UniProt P04757+P12390) (P12390 whole entry): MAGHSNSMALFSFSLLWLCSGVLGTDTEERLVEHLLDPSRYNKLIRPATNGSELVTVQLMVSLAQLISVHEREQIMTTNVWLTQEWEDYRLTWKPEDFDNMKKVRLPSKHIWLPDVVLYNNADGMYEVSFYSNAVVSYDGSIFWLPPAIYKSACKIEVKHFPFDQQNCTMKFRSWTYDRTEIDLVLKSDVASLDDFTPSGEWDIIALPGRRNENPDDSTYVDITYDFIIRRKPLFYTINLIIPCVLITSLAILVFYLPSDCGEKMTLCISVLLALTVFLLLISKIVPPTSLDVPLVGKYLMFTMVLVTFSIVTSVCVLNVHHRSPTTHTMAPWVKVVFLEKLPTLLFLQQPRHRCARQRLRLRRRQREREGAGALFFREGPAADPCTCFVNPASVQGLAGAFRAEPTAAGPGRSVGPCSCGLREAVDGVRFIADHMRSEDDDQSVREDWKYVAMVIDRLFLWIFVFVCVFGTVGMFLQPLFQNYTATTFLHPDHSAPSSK
T5 sequence (P17787 whole entry): as the sequence (P17787 whole entry) above
T5 sequence (P43681 whole entry): as the sequence (P43681 whole entry) above

COc1cc2c3cc1Oc1cccc(c1O)C[C@@H]1c4c(cc(OC)c(O)c4Oc4ccc(cc4)CC3N(C)CC2)CC[N+]1(C)C (stereo partly specified)
IC50 [1]: 4.2 µM | IC50 [2]: 2400 nM | IC50 [3]: 2200 nM | IC50 [4]: 2.3 µM and 4 µM | IC50 [5]: 230 nM | IC50 [6]: 4100 nM and 730 nM | Concentration [7]: 3.1 µM | Concentration [8]: 3.2 µM | Concentration [9]: 0.21 µM | IC50 [10]: 14.7 µM | Concentration [11]: 7.6 µM

Cc1cc([C@@H]2CCN2C)on1
Rmax [12]: 50% | Rmax [13]: 119% | Rmax [14]: 50% | Rmax [15]: 55%

CC[C@H](C)[C@H](NC(=O)[C@H](CCC(N)=O)NC(=O)[C@@H]1CCCN1C(=O)[C@H](CC(N)=O)NC(=O)[C@H](Cc1cnc[nH]1)NC(=O)[C@@H](NC(=O)[C@@H](NC(=O)[C@H](CS)NC(=O)[C@@H](NC(=O)[C@@H]1CCCN1C(=O)[C@H](CC(N)=O)NC(=O)[C@H](CO)NC(=O)[C@H](CS)NC(=O)[C@H](CS)NC(=O)[C@@H]1CCCN1C(=O)[C@@H](N)CC(=O)O)C(C)C)[C@@H](C)O)C(C)C)C(=O)N[C@@H](CS)C(N)=O (H-DPCCSNPVCTVHNPQIC-NH2)
IC50 [16]: 1 nM | IC50 [17]: 1 nM

CC[C@H](C)[C@H](N)C(=O)N[C@@H](CCCN=C(N)N)C(=O)N[C@@H](CC(=O)O)C(=O)N[C@@H](CCC(=O)O)C(=O)N[C@@H](CS)C(=O)N[C@@H](CS)C(=O)N[C@@H](CO)C(=O)N[C@@H](CC(N)=O)C(=O)N1CCC[C@H]1C(=O)N[C@@H](C)C(=O)N[C@@H](CS)C(=O)N[C@@H](CCCN=C(N)N)C(=O)N[C@H](C(=O)N[C@@H](CC(N)=O)C(=O)N[C@@H](CC(N)=O)C(=O)N1C[C@H](O)C[C@H]1C(=O)N[C@@H](Cc1c[nH]cn1)C(=O)N[C@H](C(=O)N[C@@H](CS)C(N)=O)C(C)C)C(C)C (H-IRDECCSNPACRVNN[Hyp]HVC-NH2)
IC50 [18]: 5 nM | IC50 [19]: 5 nM | IC50 [20]: 5 nM | IC50 [21]: 5 nM | IC50 [22]: 5 nM

C[N+]1(C)CCN(c2ccccc2)CC1 [DIMETHYLPHENYLPIPERAZINIUM]
Rmax [23]: 58% | Rmax [24]: 124% | Rmax [25]: 101% | Rmax [26]: 90% | Rmax [27]: 19% | Rmax [28]: 54% | Rmax [29]: 107% | EC50 [30]: 31 µM | Rmax [31]: 100% | EC50 [32]: 18 µM | EC50 [33]: 23 µM | EC50 [34]: 56 µM | EC50 [35]: 19 µM | EC50 [36]: 46 µM

CN[C@@H](C)C/C=C/c1cncc(OC(C)C)c1 [ISPRONICLINE]
Rmax [26]: 60% | Rmax [37]: 56% | Rmax [38]: 24% | Rmax [39]: 33% | Rmax [40]: 42% | EC50 [41]: > 100 µM | EC50 [42]: > 100 µM | EC50 [43]: > 10 µM | EC50 [44]: > 10 µM | EC50 [45]: > 10 µM
